Target: SMARCA2 (Homo sapiens (Human), UniProt P51531)
Assay: SMARCA2 HiBiT degradation assay in HEK293T cells
Format: cell-based
Conditions: 293T HiBiT assay, 24 h; for DC50: read-out: DC50 (SM2-293T) SMARCA2 degradation potency; for Dmax: HEK-293T, read-out: Dmax % (SM2-293T) maximum SMARCA2 degradation within the concentrations tested
Procedure, shortened: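 LgBiT-expressing HEK293T cells with homozygous C-terminal HiBiT knock-in on endogenous SMARCA2 treated 24 h with 11-point 3-fold compound dilutions. Lytic HiBiT luminescence normalized to DMSO (high) and 1 μM PRT1001728 (low) controls; DC50 from four-parameter curve fit.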

SMARCA2, sequence (P51531 whole entry): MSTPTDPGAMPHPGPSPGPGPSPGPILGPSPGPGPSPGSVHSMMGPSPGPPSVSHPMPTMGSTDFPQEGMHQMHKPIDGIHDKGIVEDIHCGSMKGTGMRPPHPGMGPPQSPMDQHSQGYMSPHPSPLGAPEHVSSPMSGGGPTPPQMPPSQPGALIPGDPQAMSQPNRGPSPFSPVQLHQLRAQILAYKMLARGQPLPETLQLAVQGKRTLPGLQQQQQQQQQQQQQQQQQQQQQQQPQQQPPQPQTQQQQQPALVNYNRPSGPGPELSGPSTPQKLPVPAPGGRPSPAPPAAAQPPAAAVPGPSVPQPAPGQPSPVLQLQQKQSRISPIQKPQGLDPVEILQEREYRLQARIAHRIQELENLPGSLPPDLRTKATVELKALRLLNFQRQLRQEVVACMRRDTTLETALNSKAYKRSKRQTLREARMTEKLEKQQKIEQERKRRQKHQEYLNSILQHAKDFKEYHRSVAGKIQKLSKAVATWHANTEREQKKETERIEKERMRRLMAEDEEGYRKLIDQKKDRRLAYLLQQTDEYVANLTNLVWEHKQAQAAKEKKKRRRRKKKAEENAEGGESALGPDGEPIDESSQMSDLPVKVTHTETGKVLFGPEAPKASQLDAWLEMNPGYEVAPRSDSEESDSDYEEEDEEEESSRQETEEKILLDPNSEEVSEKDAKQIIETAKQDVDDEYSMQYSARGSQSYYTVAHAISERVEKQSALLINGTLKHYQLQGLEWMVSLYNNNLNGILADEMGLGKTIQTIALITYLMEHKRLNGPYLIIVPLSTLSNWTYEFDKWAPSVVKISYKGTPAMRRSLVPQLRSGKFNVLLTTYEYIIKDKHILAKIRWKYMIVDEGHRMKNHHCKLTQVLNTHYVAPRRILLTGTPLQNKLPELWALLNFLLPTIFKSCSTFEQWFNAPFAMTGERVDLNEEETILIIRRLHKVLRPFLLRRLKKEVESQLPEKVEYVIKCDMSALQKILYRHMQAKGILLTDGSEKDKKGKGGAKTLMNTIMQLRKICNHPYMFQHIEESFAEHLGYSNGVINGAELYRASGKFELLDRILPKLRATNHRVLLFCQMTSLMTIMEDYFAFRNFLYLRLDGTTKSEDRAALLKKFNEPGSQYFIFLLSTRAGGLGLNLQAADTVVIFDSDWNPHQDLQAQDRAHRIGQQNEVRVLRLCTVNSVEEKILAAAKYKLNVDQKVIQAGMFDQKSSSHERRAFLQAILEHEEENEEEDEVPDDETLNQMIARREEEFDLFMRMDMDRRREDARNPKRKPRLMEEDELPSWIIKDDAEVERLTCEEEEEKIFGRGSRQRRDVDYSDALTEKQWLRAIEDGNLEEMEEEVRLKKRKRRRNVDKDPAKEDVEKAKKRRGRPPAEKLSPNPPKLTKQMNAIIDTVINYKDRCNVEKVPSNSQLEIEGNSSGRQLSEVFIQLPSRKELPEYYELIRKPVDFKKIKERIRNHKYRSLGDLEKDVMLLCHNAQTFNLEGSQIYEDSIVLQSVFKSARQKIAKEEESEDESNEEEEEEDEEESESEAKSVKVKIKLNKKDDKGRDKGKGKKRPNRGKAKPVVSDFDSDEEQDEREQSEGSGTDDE

Structure (SMILES) | DC50 [nM] | Dmax [%]
Cc1ncsc1-c1ccc([C@H](C)NC(=O)[C@@H]2C[C@@H](O)CN2C(=O)[C@@H](c2cc(OC(C)CN3CCCC(CN4CCN5c6cc(-c7ccccc7O)nnc6NC[C@H]5C4)CC3)no2)C(C)C)cc1 (stereo partly drawn) [Example 67, (2S,4R)-4-hydroxy-1-((2R)-2-(3-((1-(4-(((S)-2-(2-hydroxyphenyl)-5,6,6a,7,9,10-hexahydro-8H-pyrazino[1′,2′:4,5]pyrazino[2,3-c]pyridazin-8-yl)methyl)azepan-1-yl)propan-2-yl)oxy)isoxazol-5-yl)-3-methylbutanoyl)-N-((S)-1-(4-(4-methylthiazol-5-yl)phenyl)ethyl)pyrrolidine-2-carboxamide] | < 100 | > 75
Cc1ncsc1-c1ccc([C@H](C)NC(=O)[C@@H]2C[C@@H](O)CN2C(=O)[C@@H](c2cc(CCCN3CCN4c5cc(-c6ccccc6O)nnc5NCC4C3)no2)C(C)C)cc1 (stereo partly drawn) [Example 74, (2S,4R)-4-hydroxy-1-((2R)-2-(3-(3-(2-(2-hydroxyphenyl)-5,6,6a,7,9,10-hexahydro-8H-pyrazino[1′,2′:4,5]pyrazino[2,3-c]pyridazin-8-yl)propyl)isoxazol-5-yl)-3-methylbutanoyl)-N-((S)-1-(4-(4-methylthiazol-5-yl)phenyl)ethyl)pyrrolidine-2-carboxamide] | < 100 | > 75
Cc1ncsc1-c1ccc([C@H](C)NC(=O)[C@@H]2C[C@@H](O)CN2C(=O)C(c2cc(COc3cc(N4CCN5c6cc(-c7ccccc7O)nnc6NCC5C4)ccn3)no2)C(C)C)cc1 (stereo partly drawn) [Example 75, (2S,4R)-4-hydroxy-1-(2-(3-(((4-(2-(2-hydroxyphenyl)-5,6,6a,7,9,10-hexahydro-8H-pyrazino[1′,2′:4,5]pyrazino[2,3-c]pyridazin-8-yl)pyridin-2-yl)oxy)methyl)isoxazol-5-yl)-3-methylbutanoyl)N-((S)-1-(4-(4-methylthiazol-5-yl)phenyl)ethyl)pyrrolidine-2-carboxamide] | 100 to 1000 | > 75
Cc1ncsc1-c1ccc([C@H](C)NC(=O)[C@@H]2C[C@@H](O)CN2C(=O)[C@@H](c2cc(OCCN3CCC(N4CCN5c6cc(-c7ccccc7O)nnc6NC[C@@H]5C4)CC3)no2)C(C)C)cc1 [Example 77, (2S,4R)-4-hydroxy-1-((R)-2-(3-(2-(4-((R)-2-(2-hydroxyphenyl)-5,6,6a,7,9,10-hexahydro-8H-pyrazino[1′,2′:4,5]pyrazino[2,3-c]pyridazin-8-yl)piperidin-1-yl)ethoxy)isoxazol-5-yl)-3-methylbutanoyl)-N-((S)-1-(4-(4-methylthiazol-5-yl)phenyl)ethyl)pyrrolidine-2-carboxamide] | < 100 | > 75
Cc1ncsc1-c1ccc([C@H](C)NC(=O)[C@@H]2C[C@@H](O)CN2C(=O)[C@@H](c2cc(OCCN3C4CCC3CC(CN3CCN5c6cc(-c7ccccc7O)nnc6NCC5C3)C4)no2)C(C)C)cc1 (stereo partly drawn) [Example 78, (2S,4R)-4-hydroxy-1-((2R)-2-(3-(2-(3-((2-(2-hydroxyphenyl)-5,6,6a,7,9,10-hexahydro-8H-pyrazino[1′,2′:4,5]pyrazino[2,3-c]pyridazin-8-yl)methyl)-8-azabicyclo[3.2.1]octan-8-yl)ethoxy)isoxazol-5-yl)-3-methylbutanoyl)-N-((S)-1-(4-(4-methylthiazol-5-yl)phenyl)ethyl)pyrrolidine-2-carboxamide] | < 100 | > 75
Cc1ncsc1-c1ccc([C@H](C)NC(=O)[C@@H]2C[C@@H](OC(=O)C(C)C)CN2C(=O)[C@@H](c2cc(OCCN3CCC(N4CCN5c6cc(-c7ccccc7O)nnc6NC[C@H]5C4)CC3)no2)C(C)C)cc1 [Example 81, (3R,5S)-1-((R)-2-(3-(2-(4-((S)-2-(2-hydroxyphenyl)-5,6,6a,7,9,10-hexahydro-8H-pyrazino[1′,2′:4,5]pyrazino[2,3-c]pyridazin-8-yl)piperidin-1-yl)ethoxy)isoxazol-5-yl)-3-methylbutanoyl)-5-(((S)-1-(4-(4-methylthiazol-5-yl)phenyl)ethyl)carbamoyl)pyrrolidin-3-yl isobutyrate] | < 100 | > 75
Cc1ncsc1-c1ccc([C@H](C)NC(=O)[C@@H]2C[C@@H](O)CN2C(=O)[C@@H](c2cc(OCCN3CCC(CN4CCN5c6cc(-c7ccccc7O)nnc6NC[C@H]5C4)C(C)(C)C3)no2)C(C)C)cc1 (stereo partly drawn) [Example 87, (2S,4R)-4-hydroxy-1-((2R)-2-(3-(2-(4-(((S)-2-(2-hydroxyphenyl)-5,6,6a,7,9,10-hexahydro-8H-pyrazino[1′,2′:4,5]pyrazino[2,3-c]pyridazin-8-yl)methyl)-3,3-dimethylpiperidin-1-yl)ethoxy)isoxazol-5-yl)-3-methylbutanoyl)-N-((S)-1-(4-(4-methylthiazol-5-yl)phenyl)ethyl)pyrrolidine-2-carboxamide] | < 100 | > 75

The remaining lines, values ahead:

DC50 [nM] | Dmax [%] | Structure (SMILES)
< 100 | > 75 | Cc1ncsc1-c1ccc([C@H](C)NC(=O)[C@@H]2C[C@@H](O)CN2C(=O)[C@@H](NC(=O)CN2CCC(N3CCN4c5cc(-c6ccccc6O)nnc5NC[C@@H]4C3)CC2)C(C)(C)C)cc1 [Example 79, (2S,4R)-4-hydroxy-1-((S)-2-(2-(4-((R)-2-(2-hydroxyphenyl)-5,6,6a,7,9,10-hexahydro-8H-pyrazino[1′,2′:4,5]pyrazino[2,3-c]pyridazin-8-yl)piperidin-1-yl)acetamido)-3,3-dimethylbutanoyl)-N-((S)-1-(4-(4-methylthiazol-5-yl)phenyl)ethyl)pyrrolidine-2-carboxamide]
< 100 | > 75 | Cc1ncsc1-c1ccc([C@H](C)NC(=O)[C@@H]2C[C@@H](O)CN2C(=O)[C@@H](NC(=O)OCCN2CCC(N3CCN4c5cc(-c6ccccc6O)nnc5NC[C@H]4C3)CC2)C(C)(C)C)cc1 [Example 80, 2-(4-((S)-2-(2-hydroxyphenyl)-5,6,6a,7,9,10-hexahydro-8H-pyrazino[1′,2′:4,5]pyrazino[2,3-c]pyridazin-8-yl)piperidin-1-yl)ethyl ((S)-1-((2S,4R)-4-hydroxy-2-(((S)-1-(4-(4-methylthiazol-5-yl)phenyl)ethyl)carbamoyl)pyrrolidin-1-yl)-3,3-dimethyl-1-oxobutan-2-yl)carbamate]
< 100 | > 75 | Cc1ncsc1-c1ccc([C@H](C)NC(=O)[C@@H]2C[C@@H](O)CN2C(=O)[C@@H](NC(=O)C2CN(CCCN3CCN4c5cc(-c6ccccc6O)nnc5NCC4C3)C2)C(C)(C)C)cc1 (stereo partly drawn) [Example 82, (2S,4R)-4-hydroxy-1-((2S)-2-(1-(3-(2-(2-hydroxyphenyl)-5,6,6a,7,9,10-hexahydro-8H-pyrazino[1′,2′:4,5]pyrazino[2,3-c]pyridazin-8-yl)propyl)azetidine-3-carboxamido)-3,3-dimethylbutanoyl)N-((S)-1-(4-(4-methylthiazol-5-yl)phenyl)ethyl)pyrrolidine-2-carboxamide]
< 100 | > 75 | Cc1ncsc1-c1ccc([C@H](C)NC(=O)[C@@H]2C[C@@H](O)CN2C(=O)[C@@H](c2cc(OC3CCN(CCCN4CCN5c6cc(-c7ccccc7O)nnc6NC[C@H]5C4)C3)no2)C(C)C)cc1 (stereo partly drawn) [Example 83, (2S,4R)-4-hydroxy-1-((2R)-2-(3-((1-(3-((S)-2-(2-hydroxyphenyl)-5,6,6a,7,9,10-hexahydro-8H-pyrazino[1′,2′:4,5]pyrazino[2,3-c]pyridazin-8-yl)propyl)pyrrolidin-3-yl)oxy)isoxazol-5-yl)-3-methylbutanoyl)N-((S)-1-(4-(4-methylthiazol-5-yl)phenyl)ethyl)pyrrolidine-2-carboxamide]
< 100 | > 75 | Cc1ncsc1-c1ccc([C@H](C)NC(=O)[C@@H]2C[C@@H](O)CN2C(=O)[C@@H](c2cc(OCCN3CCCC(CN4CCN5c6cc(-c7ccccc7O)nnc6NC[C@H]5C4)CC3)no2)C(C)C)cc1 (stereo partly drawn) [Example 84, (2S,4R)-4-hydroxy-1-((2R)-2-(3-(2-(4-(((S)-2-(2-hydroxyphenyl)-5,6,6a,7,9,10-hexahydro-8H-pyrazino[1′,2′:4,5]pyrazino[2,3-c]pyridazin-8-yl)methyl)azepan-1-yl)ethoxy)isoxazol-5-yl)-3-methylbutanoyl)-N-((S)-1-(4-(4-methylthiazol-5-yl)phenyl)ethyl)pyrrolidine-2-carboxamide]
< 100 | > 75 | Cc1ncsc1-c1ccc([C@H](C)NC(=O)[C@@H]2C[C@@H](O)CN2C(=O)[C@@H](c2cc(CCN3CCC(N4CCN5c6cc(-c7ccccc7O)nnc6NC[C@H]5C4)CC3)no2)C(C)C)cc1 [Example 91, (2S,4R)-4-hydroxy-1-((R)-2-(3-(2-(4-((S)-2-(2-hydroxyphenyl)-5,6,6a,7,9,10-hexahydro-8H-pyrazino[1′,2′:4,5]pyrazino[2,3-c]pyridazin-8-yl)piperidin-1-yl)ethyl)isoxazol-5-yl)-3-methylbutanoyl)-N-((S)-1-(4-(4-methylthiazol-5-yl)phenyl)ethyl)pyrrolidine-2-carboxamide]
